A word on the EC50: it is the midpoint of the concentration-response curve. Low values mean greater potency, high ones weaker potency.

In this test the target is T1, hFXR (Homo sapiens, UniProt Q96RI1).
T1 construct: expressed in transfected cells; host or cells: CV-1 cells
T1 sequence (Q96RI1 1-486): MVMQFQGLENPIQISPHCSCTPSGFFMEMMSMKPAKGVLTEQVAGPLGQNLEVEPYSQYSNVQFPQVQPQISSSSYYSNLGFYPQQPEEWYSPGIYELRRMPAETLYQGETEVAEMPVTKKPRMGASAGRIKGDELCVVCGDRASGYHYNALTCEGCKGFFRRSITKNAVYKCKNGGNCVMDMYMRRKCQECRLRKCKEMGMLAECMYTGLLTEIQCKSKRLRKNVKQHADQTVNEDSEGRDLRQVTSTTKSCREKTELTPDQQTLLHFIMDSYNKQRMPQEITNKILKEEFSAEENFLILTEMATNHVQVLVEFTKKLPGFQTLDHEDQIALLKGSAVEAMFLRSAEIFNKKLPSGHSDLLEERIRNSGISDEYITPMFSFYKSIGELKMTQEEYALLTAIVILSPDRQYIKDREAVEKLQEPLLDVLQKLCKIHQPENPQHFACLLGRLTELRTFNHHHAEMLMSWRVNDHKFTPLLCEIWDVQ
T1 sequence (P19793 1-462 partner): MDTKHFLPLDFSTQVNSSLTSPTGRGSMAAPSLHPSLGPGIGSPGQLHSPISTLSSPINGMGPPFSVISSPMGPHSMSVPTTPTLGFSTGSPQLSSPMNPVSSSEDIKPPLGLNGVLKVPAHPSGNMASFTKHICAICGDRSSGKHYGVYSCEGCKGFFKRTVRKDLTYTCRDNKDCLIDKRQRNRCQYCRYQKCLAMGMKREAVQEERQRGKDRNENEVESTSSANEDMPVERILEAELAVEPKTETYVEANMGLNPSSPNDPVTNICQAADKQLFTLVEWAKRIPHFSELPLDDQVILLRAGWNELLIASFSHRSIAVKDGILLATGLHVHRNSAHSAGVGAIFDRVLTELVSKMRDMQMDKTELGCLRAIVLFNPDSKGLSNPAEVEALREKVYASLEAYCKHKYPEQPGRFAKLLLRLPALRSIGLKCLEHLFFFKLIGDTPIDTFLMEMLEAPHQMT
Kind of test: In Vitro FXR Assay (TK). Format: cell-based. To be noted: CV-1 cells transfected with hFXR, hRXR, TK-ECRE-luc and pCMX-YFP; compounds incubated 18 hrs; luminescence. The method, then: CV-1 cells were seeded at a density of 2,000,000 cells in a T175 flask with DMEM+10% charcoal double-stripped FBS and incubated at 37° C. in 5% CO2 for 18 h (O/N).
After 18 h of incubation, the medium in the T175 flask was changed with fresh DMEM+10% charcoal super-stripped serum. In a polypropylene tube, 2500 μL OptiMEM (Life Technologies, Cat #31985-062) was combined with expression plasmids for hFXR, hRXR, TK-ECRE-luc and pCMX-YFP. The tube was then briefly vortexed and incubated at room temperature for 5 minutes. Transfection reagent (X-tremeGENE HP from Roche, Cat #06 366 236 001) was added to the OptiMEM/plasmid mixture vortexed and incubated at room temperature for 20 minutes. Following incubation, the transfection reagent/DNA mixture complex was added to cells in the T175 flask and the cells were incubated at 37° C. in 5% CO2 for 18 h (O/N).
Compounds were serially diluted in DMSO and added to transfected CV-1 cells. The cells were then incubated for 18 hrs. The next day cells were lysed and examined for luminescence.
Compound `COc1ccc(-c2ccc(CN(C(=O)CC(C)(C)C)c3nccc4cc(N5CC(O)C5)ccc34)cc2)cc1C` [Compound 6.03, N-(6-(3-Hydroxyazetidin-1-yl)isoquinolin-1-yl)-N-((4′-methoxy-3′-methyl-[1,1′-biphenyl]-4-yl)methyl)-3,3-dimethylbutanamide] gave an EC50 of at most 1 µM.

The compound `COc1ccc(-c2ccc(CN(C(=O)CC(C)(C)C)c3nccc4cc(N5CCC5)ccc34)cc2)cc1C` [Compound 6.04, N-(6-(Azetidin-1-yl)isoquinolin-1-yl)-N-((4′-methoxy-3′-methyl-[1,1′-biphenyl]-4-yl)methyl)-3,3-dimethylbutanamide] gave an EC50 of at most 1 µM.

Turning to `COc1ccc(-c2ccc(CN(C(=O)CC(C)(C)C)c3nccc4cc(N5CCN(C)CC5)ccc34)cc2)cc1C` [Compound 6.05, N-((4′-Methoxy-3′-methyl-[1,1′-biphenyl]-4-yl)methyl)-3,3-dimethyl-N-(6-(4-methylpiperazin-1-yl)isoquinolin-1-yl)butanamide], the EC50 lay in the range of 1 to 10 µM.

In the case of `COc1ccc(-c2ccc(CN(C(=O)CC(C)(C)C)c3nccc4cc(N5CCOCC5)ccc34)cc2)cc1C` [Compound 6.06, N-((4′-Methoxy-3′-methyl-[1,1′-biphenyl]-4-yl)methyl)-3,3-dimethyl-N-(6-morpholinoisoquinolin-1-yl)butanamide], the EC50 is at most 1 µM.

Compound `COc1ccc(-c2ccc(CN(C(=O)CC(C)(C)C)c3nccc4cc(N5CCCCC5)ccc34)cc2)cc1C` [Compound 6.07, N-((4′-Methoxy-3′-methyl-[1,1′-biphenyl]-4-yl)methyl)-3,3-dimethyl-N-(6-(piperidin-1-yl)isoquinolin-1-yl)butanamide] displayed an EC50 of at most 1 µM.

`COc1ccc(-c2ccc(CN(C(=O)CC(C)(C)C)c3nccc4cc(N5CCCC5)ccc34)cc2)cc1C` [Compound 6.08, N-((4′-Methoxy-3′-methyl-[1,1′-biphenyl]-4-yl)methyl)-3,3-dimethyl-N-(6-(pyrrolidin-1-yl)isoquinolin-1-yl)butanamide] registered an EC50 of at most 1 µM.

Regarding `COc1ccc(-c2ccc(CN(C(=O)CC(C)(C)C)c3nccc4cc(N5CCNCC5)ccc34)cc2)cc1C` [Compound 6.09, N-((4′-Methoxy-3′-methyl-[1,1′-biphenyl]-4-yl)methyl)-3,3-dimethyl-N-(6-(piperazin-1-yl)isoquinolin-1-yl)butanamide], the concentration for a half-maximal effect (EC50) is 1 to 10 µM.

`CNc1ccc2c(N(Cc3ccc(-c4ccc(OC)c(C)c4)cc3)C(=O)CC(C)(C)C)nccc2c1` [Compound 6.11, N-((4′-Methoxy-3′-methyl-[1,1′-biphenyl]-4-yl)methyl)-3,3-dimethyl-N-(6-(methylamino)isoquinolin-1-yl)butanamide] returned an EC50 of at most 1 µM.

`COc1ccc(-c2ccc(CN(C(=O)CC(C)(C)C)c3nccc4cc(N5CCC(F)C5)ccc34)cc2)cc1C` (centres unmarked) [Compound 6.12, N-(6-(3-Fluoropyrrolidin-1-yl)isoquinolin-1-yl)-N-((4′-methoxy-3′-methyl-[1,1′-biphenyl]-4-yl)methyl)-3,3-dimethylbutanamide] displayed an EC50 of at most 1 µM.

The compound `COc1ccc(-c2ccc(CN(C(=O)CC(C)(C)C)c3nccc4cc(N5CCC(C#N)C5)ccc34)cc2)cc1C` (centres unmarked) [Compound 6.13, N-(6-(3-Cyanopyrrolidin-1-yl)isoquinolin-1-yl)-N-((4′-methoxy-3′-methyl-[1,1′-biphenyl]-4-yl)methyl)-3,3-dimethylbutanamide] yielded a concentration giving a half-maximal response (EC50) of at most 1 µM.

Turning to `COc1ccc(-c2ccc(CN(C(=O)CC(C)(C)C)c3nccc4cc(N5CCC(CCO)C5)ccc34)cc2)cc1C` (centres unmarked) [Compound 6.14, N-(6-(3-(2-Hydroxyethyl)pyrrolidin-1-yl)isoquinolin-1-yl)-N-((4′-methoxy-3′-methyl-[1,1′-biphenyl]-4-yl)methyl)-3,3-dimethylbutanamide], the 50% effective concentration (EC50) was at most 1 µM.

`COc1ccc(-c2ccc(CN(C(=O)CC(C)(C)C)c3nccc4cc(N5CC(CO)C5)ccc34)cc2)cc1C` [Compound 6.15, N-(6-(3-(Hydroxymethyl)azetidin-1-yl)isoquinolin-1-yl)-N-((4′-methoxy-3′-methyl-[1,1′-biphenyl]-4-yl)methyl)-3,3-dimethylbutanamide] yielded an EC50 of at most 1 µM.

Regarding `COc1ccc(-c2ccc(CN(C(=O)CC(C)(C)C)c3nccc4cc(N5CCC(CO)C5)ccc34)cc2)cc1C` (centres unmarked) [Compound 6.16, N-(6-(3-(Hydroxymethyl)pyrrolidin-1-yl)isoquinolin-1-yl)-N-((4′-methoxy-3′-methyl-[1,1′-biphenyl]-4-yl)methyl)-3,3-dimethylbutanamide], the EC50 is at most 1 µM.

In turn, `COc1ccc(-c2ccc(CN(C(=O)CC(C)(C)C)c3nccc4cc(N5CCCC(O)C5)ccc34)cc2)cc1C` (centres unmarked) [Compound 6.17, N-(6-(3-Hydroxypiperidin-1-yl)isoquinolin-1-yl)-N-((4′-methoxy-3′-methyl-[1,1′-biphenyl]-4-yl)methyl)-3,3-dimethylbutanamide] displayed a 50% effective concentration (EC50) of at most 1 µM.

Regarding `COc1ccc(-c2ccc(CN(C(=O)CC(C)(C)C)c3nccc4cc(N5CCC(O)CC5)ccc34)cc2)cc1C` [Compound 6.18, N-(6-(4-Hydroxypiperidin-1-yl)isoquinolin-1-yl)-N-((4′-methoxy-3′-methyl-[1,1′-biphenyl]-4-yl)methyl)-3,3-dimethylbutanamide], the EC50 was at most 1 µM.

In turn, `COc1ccc(-c2ccc(CN(C(=O)CC(C)(C)C)c3nccc4cc(N5CCC(OC)C5)ccc34)cc2)cc1C` (centres unmarked) [Compound 6.19, N-((4′-Methoxy-3′-methyl-[1,1′-biphenyl]-4-yl)methyl)-N-(6-(3-methoxypyrrolidin-1-yl)isoquinolin-1-yl)-3,3-dimethylbutanamide] gave an EC50 of at most 1 µM.

In turn, `COC(=O)Nc1ccc2c(N(Cc3ccc(-c4ccc(OC)c(C)c4)cc3)C(=O)CC(C)(C)C)nccc2c1` [Compound 6.21, Methyl (l-(N-((4′-methoxy-3′-methyl-[1,1′-biphenyl]-4-yl)methyl)-3,3-dimethylbutanamido)isoquinolin-6-yl)carbamate] yielded an EC50 of at most 1 µM.

For `COc1ccc(-c2ccc(CN(C(=O)CC(C)(C)C)c3nccc4cc(O)ccc34)cc2)cc1C` [Compound 7, N-(6-Hydroxyisoquinolin-1-yl)-N-((4′-methoxy-3′-methyl-[1,1′-biphenyl]-4-yl)methyl)-3,3-dimethylbutanamide], the EC50 was at most 1 µM.

As for `COc1ccc(-c2ccc(CN(C(=O)CC(C)(C)C)c3nccc4cc(OCCCO)ccc34)cc2)cc1C` [Compound 8, N-(6-(3-Hydroxypropoxy)isoquinolin-1-yl)-N-((4′-methoxy-3′-methyl-[1,1′-biphenyl]-4-yl)methyl)-3,3-dimethylbutanamide], the EC50 is at most 1 µM.

Regarding `COc1ccc(-c2ccc(CN(C(=O)CC(C)(C)C)c3nccc4cc(OCCCCO)ccc34)cc2)cc1C` [Compound 8.1, N-(6-(4-Hydroxybutoxy)isoquinolin-1-yl)-N-((4′-methoxy-3′-methyl-[1,1′-biphenyl]-4-yl)methyl)-3,3-dimethylbutanamide], the EC50 was at most 1 µM.

Compound `CNC(=O)COc1ccc2c(N(Cc3ccc(-c4ccc(OC)c(C)c4)cc3)C(=O)CC(C)(C)C)nccc2c1` [Compound 8.01, N-((4′-Methoxy-3′-methyl-[1,1′-biphenyl]-4-yl)methyl)-3,3-dimethyl-N-(6-(2-(methylamino)-2-oxoethoxy)isoquinolin-1-yl)butanamide] yielded a half-maximal effective concentration (EC50) of 1 to 10 µM.

In turn, `COc1ccc(-c2ccc(CN(C(=O)CC(C)(C)C)c3nccc4cc(OCC(=O)N(C)C)ccc34)cc2)cc1C` [Compound 8.02, N-(6-(2-(Dimethylamino)-2-oxoethoxy)isoquinolin-1-yl)-N-((4′-methoxy-3′-methyl-[1,1′-biphenyl]-4-yl)methyl)-3,3-dimethylbutanamide] came in with an EC50 of at most 1 µM.

Regarding `COc1ccc(-c2ccc(CN(C(=O)CC(C)(C)C)c3nccc4cc(OCC(N)=O)ccc34)cc2)cc1C` [Compound 8.03, N-(6-(2-Amino-2-oxoethoxy)isoquinolin-1-yl)-N-((4′-methoxy-3′-methyl-[1,1′-biphenyl]-4-yl)methyl)-3,3-dimethylbutanamide], the EC50 is at most 1 µM.

For the origin of these results see US20200131132A1, “FARNESOID X RECEPTOR AGONISTS AND USES THEREOF” (Metacrine, Inc., priority 2017, published 2020).
